Assay results as given in patent US20240108641A1, “COMPOSITIONS FOR ORAL ADMINISTRATION OF ZOLEDRONIC ACID OR RELATED COMPOUNDS FOR TREATING DISEASE” (ANTECIP BIOVENTURES II LLC, priority 2012, published 2024).

Columns and labels:
[1] = test system: knee pain (knee osteoarthritis and knee bone marrow lesions); assay: clinical study in knee osteoarthritis with bone marrow lesions, VAS pain; format: in vivo, human; details: 5 mg intravenous; for average VAS scores decreased from baseline: 3 months; for average VAS scores reduced as compared to placebo: three months
Source text: (§1) Some embodiments related to joint pain, bone marrow lesions, and osteoarthritis were conceived as a result of analyzing data from a clinical study. Some of the results of this study were reported by Laslett et al. in Ann Rheum Dis 2012; 71:1322-1328. Some of the description and data reported below was not published prior to filing the present application. Fifty-two (52) patients with clinical knee osteoarthritis and knee bone marrow lesions (BML) were randomized to receive either intravenous zoledronic acid (5 mg) or placebo in a double blind fashion. All patients had to have at least one bone marrow lesion (BML) in the affected knee on magnetic resonance imaging (MRI). All patients had x-ray of the knee for determination of joint space narrowing (JSN), which was graded according to the Osteoarthritis Research Society International (OARSI) atlas. Patients had either no joint space narrowing (OARSI Grade 0), or greater degrees of joint space narrowing (OARSI Grade 1 and Grade 2). Twenty six patients were treated with zoledronic acid (8, 6, and 12 with OARSI Grades 0, 1, and 2, respectively). Twenty six patients received placebo (8, 8, and 10 with OARSI Grades 0, 1 and 2, respectively).
Pain intensity was assessed at baseline and at three months, using a 100 mm visual analog scale (VAS), with zero representing no pain and 100 representing extreme pain. The change in pain intensity from baseline to 3 months was calculated.

[2] = phase 1 clinical trial, bioavailability and pharmacokinetics of the oral dosage form versus IV Zometa; format: in vivo, human
Method: Dose amounts are based upon the weights of the molar equivalent amounts of the diacid form of zoledronic acid (e.g., the 50 mg oral dose contains about 71 mg of the disodium zoledronate tetrahydrate form). The dosage form had the composition shown in Table 3, and was coated with Opadry White, which as 3-5 wt % of the coated tablet. These dosage forms were free of bioavailability enhancing agents. For convenience, the dosage form described in Table 3 will be described in this Example as “the oral dosage form.”
Each subject received 2 of the following 4 treatments: one unit of the oral dosage form for a 50 mg dose (“the 50 mg oral dose”), two units of the oral dosage form taken together for a 100 mg dose (“the 100 mg oral dose”), or three units of the oral dosage form taken together for a 150 mg dose (“the 150 mg oral dose”), or a 1 mg IV dose of zoledronic acid (Zometa®). Each treatment was separated by a wash-out period of approximately 14 days. Blood samples were collected for 72 hours post-dose to characterize zoledronic acid pharmacokinetics. Blood samples were collected pre-dose and 7 and 14-15 days post-dose to measure the effects of the oral disodium tetrahydrate form of zoledronic acid and IV zoledronic acid on biomarkers of bone resorption.
All study medications which were orally administered were given with approximately 240 mL of water. Subjects remained upright for the first hour following study medication administration. Zoledronic acid IV infusion was at least 15 minutes in duration. All study medication was administered under fasting conditions.
Each treatment was separated by a washout period of approximately 14 days. Blood samples were collected for 72 hours post-dose to characterize zoledronic acid pharmacokinetics. Blood samples were collected pre-dose and 7 and 14-15 days post-dose to measure the effects of the oral dosage form and IV zoledronic acid on serum CTx.

[3] = test system: inflammatory pain (mechanical hyperalgesia); format: in vivo, Sprague-Dawley rats
Method: The effect of orally administered zoledronic acid on inflammatory pain was examined using the rat complete Freund's adjuvant (CFA) model. Inflammatory pain was induced by injection of 100% CFA in a 75 μL volume into the left hind paws of Sprague-Dawley® rats on day 0, followed by assessments on days 1-3. Animals were orally administered vehicle (control), zoledronic acid 18 mg/m^2 (or 3 mg/kg), zoledronic acid 120 mg/m^2 (or 20 mg/kg), or zoledronic acid 900 mg/m^2 (or 150 mg/kg) daily on days 1-3. Drug was dissolved in distilled water and prepared fresh daily. Animals were fasted prior to dosing. Under current FDA guidelines for extrapolating starting dosages from animals to humans, dosages expressed in mg/m^2 are considered equivalent between mammalian species. Thus, for example, 18 mg/m^2 in a rat is considered equivalent to 18 mg/m^2 in a human being, while 3 mg/kg in a rat may not be equivalent to 3 mg/kg in a human being.
Values for inflammatory pain (mechanical hyperalgesia) in the vehicle and drug-treated animals were obtained on day 0 prior to CFA injection, and at baseline and post-treatment on days 1-3. Pain was assessed using a digital Randall-Selitto device (dRS; IITC Life Sciences, Woodland Hills, CA). Animals were placed in a restraint sling that suspended the animal, leaving the hind limbs available for testing. Paw compression threshold was measured by applying increasing pressure to the plantar surface of the hind paw with a dome-shaped tip placed between the 3rd and 4th metatarsus. Pressure was applied gradually over approximately 10 seconds. Measurements were taken from the first observed nocifensive behavior of vocalization, struggle or withdrawal. A cut-off value of 300 g was used to prevent injury to the animal.
Reversal of inflammatory pain was calculated according to the formula:
% reversal=(Post-treatment−Post-CFA baseline)/(Pre-CFA baseline−Post-CFA baseline)×100.
The experiment was carried out using 9-10 animals per group.

[4] = test system: knee bone marrow lesions (BML); assay: clinical study in knee osteoarthritis with bone marrow lesions, BML size on MRI; format: in vivo, human; details: 5 mg intravenous; for average BML area decreased as compared to placebo: 6 months; for Change in BML Size / Change in BML Size, Difference from Placebo: baseline to 6 months
Source text: as §1
BMLs were evaluated using proton density-weighted fat saturation MR images. BMLs were scored using Osiris software (University of Geneva, Geneva, Switzerland). The maximum size was measured in mm^2 using software cursors applied to the greatest area of each lesion. The lesion with the highest score was used if more than one was present at the same site. Each patient was given a BML score (mm^2) at each of the four sites (medial tibial, medial femoral, lateral tibial, and lateral femoral sites) and these were summed to create a total BML score (mm^2). The change in the total area of BMLs from baseline to 6 months was calculated.

O=P(O)(O)C(O)(Cn1ccnc1)P(=O)(O)O [zoledronic acid]
average VAS scores decreased from baseline ([1]; OARSI Grade 0): approximately 25 mm
average VAS scores decreased from baseline ([1]; OARSI Grade 1): ~21 mm
average VAS scores decreased from baseline ([1]; OARSI Grade 2): 9 mm
Pain Reduction Compared to Placebo at Three Months, VAS Change ([1]; All patients): −4.8 mm
Change in VAS Pain Scores at Three Months ([1]; Baseline VAS < 50 mm): −7.3 mm
Change in VAS Pain Scores at Three Months, Difference from Placebo ([1]; Baseline VAS < 50 mm): −0.6 mm
Change in VAS Pain Scores at Three Months ([1]; Baseline VAS ≥ 50 mm): −26.2 mm
Change in VAS Pain Scores at Three Months, Difference from Placebo ([1]; Baseline VAS ≥ 50 mm): −9.0 mm
Pain Reduction Compared to Placebo at Three Months, VAS Change ([1]; Baseline VAS ≥ 50 mm + OARSI Grade 0): −19.4 mm
Change in VAS Pain Scores at Three Months ([1]; OARSI Grade 0): −24.6 mm
Change in VAS Pain Scores at Three Months, Difference from Placebo ([1]; OARSI Grade 0): −15.0 mm
Change in VAS Pain Scores at Three Months ([1]; OARSI Grades 1-2): −13.2 mm
Change in VAS Pain Scores at Three Months, Difference from Placebo ([1]; OARSI Grades 1-2): −0.28 mm
average VAS scores reduced as compared to placebo ([1]; OARSI Grade 0): 15 mm
average VAS scores reduced as compared to placebo ([1]; OARSI Grades 1-2): 0.28
average VAS scores reduced as compared to placebo ([1]; baseline VAS 50 mm): 9 mm
average VAS scores reduced as compared to placebo ([1]; baseline VAS<50 mm): 0.6
Sustained Plasma Factor ([2]; 1 mg IV): 4.6
Sustained Plasma Factor ([2]; 50 mg oral dose): 13.5
Sustained Plasma Factor Ratio (oral/IV) ([2]; 50 mg oral dose versus 1 mg IV): 2.9
Sustained Plasma Factor ([2]; 100 mg oral dose): 11.7
Sustained Plasma Factor Ratio (oral/IV) ([2]; 100 mg oral dose versus 1 mg IV): 2.5
Sustained Plasma Factor ([2]; 150 mg oral dose): 15.1
Sustained Plasma Factor Ratio (oral/IV) ([2]; 150 mg oral dose versus 1 mg IV): 3.3
paw compression thresholds compared to vehicle ([3]; 120 mg/m^2 (20 mg/kg) oral daily, all time points): approximately equal or inferior to vehicle
toxicity ([3]; 900 mg/m^2 oral daily days 1-3, euthanization of all animals two days after cessation of dosing): significant toxicity
inflammatory pain thresholds compared to vehicle ([3]; oral administration): significantly improved
average BML area decreased as compared to placebo ([4]; OARSI Grade 0): approximately 190 mm^2
average BML area decreased as compared to placebo ([4]; OARSI Grades 1-2): approximately 33 mm^2
Change in BML Size ([4]; OARSI Grade 0): −244 mm^2
Change in BML Size, Difference from Placebo ([4]; OARSI Grade 0): −190 mm^2
Change in BML Size ([4]; OARSI Grades 1-2): −117 mm^2
Change in BML Size, Difference from Placebo ([4]; OARSI Grades 1-2): −33 mm^2
